Data taken from patent US9686985B2, “Fungicide N-cycloalkyl-N-bicyclicmethylene-carboxamide derivatives” (BAYER INTELLECTUAL PROPERTY GMBH, priority 2012, dated 2017).

Experiments:
[1] = test system: Venturia inaequalis; experiment: Example E: in vivo preventive test on Venturia inaequalis (apples); conditions: table E, 100 ppm, evaluated 10 days after inoculation
Method: (§1) Example E: In Vivo Preventive Test on Venturia inaequalis (Apples) [table] To produce a suitable preparation of active compound, 1 part by weight of active compound is mixed with the stated amounts of solvent and emulsifier, and the concentrate is diluted with water to the desired concentration. To test for preventive activity, young plants are sprayed with the preparation of active compound at the stated rate of application. After the spray coating has dried on, the plants are inoculated with an aqueous conidia suspension of the causal agent of apple scab (Venturia inaequalis) and then remain for 1 day in an incubation cabinet at approximately 20° C. and a relative atmospheric humidity of 100%. The plants are then placed in a greenhouse at approximately 21° C. and a relative atmospheric humidity of approximately 90%.

[2] = test system: Sphaerotheca fuliginea; experiment: Example A: in vivo preventive test on Sphaerotheca fuliginea (cucumber)
Method: Example A: In Vivo Preventive Test on Sphaerotheca fuliginea (Cucumber) [table] To produce a suitable preparation of active compound, 1 part by weight of active compound is mixed with the stated amounts of solvent and emulsifier, and the concentrate is diluted with water to the desired concentration. To test for preventive activity, young plants are sprayed with the preparation of active compound at the stated rate of application. One day after this treatment, the plants are inoculated with an aqueous spore suspension of Sphaerotheca fuliginea. Then the plants are placed in a greenhouse at approximately 23° C. and a relative atmospheric humidity of approximately 70%.

[3] = test system: Alternaria solani; experiment: Example C: in vivo preventive test on Alternaria solani (tomato)
Method: Example C: In Vivo Preventive Test on Alternaria solani (Tomato) [table] To produce a suitable preparation of active compound, 1 part by weight of active compound is mixed with the stated amounts of solvent and emulsifier, and the concentrate is diluted with water to the desired concentration. To test for preventive activity, young plants are sprayed with the preparation of active compound at the stated rate of application. One day after this treatment, the plants are inoculated with an aqueous spore suspension of Alternaria solani. The plants remain for one day in an incubation cabinet at approximately 22° C. and a relative atmospheric humidity of 100%. Then the plants are placed in an incubation cabinet at approximately 20° C. and a relative atmospheric humidity of 96%.

[4] = test system: Botrytis cinerea; experiment: Example S: in vivo preventive test on Botrytis cinerea (grey mould); conditions: table S; 500 ppm; gherkin plants; grading 4 to 5 days after contamination
Method: Example S: In Vivo Preventive Test on Botrytis cinerea (Grey Mould) […] Gherkin plants (“Vert petit de Paris” variety), sown in starter cups on a 50/50 peat soil pozzolana substrate and grown at 24° C., are treated at the Z11 cotyledon stage by spraying with the active ingredient prepared as described above. Plants, used as controls, are treated with the mixture of acetone/tween/DMSO/water not containing the active material. After 24 hours, the plants are contaminated by spraying the cotyledons with an aqueous suspension of cryopreserved Botrytis cinerea spores (50 000 spores per mL). The spores are suspended in a nutrient solution composed of 10 g/L of PDB, 50 g/L of D-Fructose, 2 g/L of NH4NO3 and 1 g/L of KH2PO4. The contaminated gherkin plants are incubated at 17° C. and at 90% relative humidity. Grading (% of efficacy) is carried out 4 to 5 days after the contamination, in comparison with the control plants.

[5] = test system: Blumeria graminis f.sp. hordei; experiment: Example I: in vivo preventive test on Blumeria graminis (barley); conditions: table I, 500 ppm, evaluated 7 days after inoculation
Method: Example I: In Vivo Preventive Test on Blumeria graminis (Barley) [table] To produce a suitable preparation of active compound, 1 part by weight of active compound or active compound combination is mixed with the stated amounts of solvent and emulsifier, and the concentrate is diluted with water to the desired concentration. To test for preventive activity, young plants are sprayed with the preparation of active compound or active compound combination at the stated rate of application. After the spray coating has been dried, the plants are dusted with spores of Blumeria graminis f.sp. hordei. The plants are placed in the greenhouse at a temperature of approximately 18° C. and a relative atmospheric humidity of approximately 80% to promote the development of mildew pustules.

[6] = test system: Uromyces appendiculatus; experiment: Example G: in vivo preventive test on Uromyces appendiculatus (bean rust); conditions: table G1; 500 ppm; bean plants; grading 11 days after contamination
Method in brief: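 Bean plants ("Saxa") at the 2-leaf stage, grown at 24° C., sprayed preventively with active ingredient, then inoculated 24 h later with U. appendiculatus spores (150 000 spores per mL). Incubated 24 h at 20° C./100% RH, then 10 days at 20° C./70-80% RH; % efficacy graded 11 days after contamination versus solvent-treated controls.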

[7] = test system: Septoria tritici; experiment: Example K: in vivo preventive test on Septoria tritici (wheat); conditions: table K, 500 ppm, evaluated 21 days after inoculation
Method: Example K: In Vivo Preventive Test on Septoria tritici (Wheat) [table] To produce a suitable preparation of active compound, 1 part by weight of active compound or active compound combination is mixed with the stated amounts of solvent and emulsifier, and the concentrate is diluted with water to the desired concentration. To test for preventive activity, young plants are sprayed with the preparation of active compound or active compound combination at the stated rate of application. After the spray coating has been dried, the plants are sprayed with a spore suspension of […] The plants remain for 48 hours in an incubation cabinet at approximately 20° C. and a relative atmospheric humidity of approximately 100% and afterwards for 60 hours at approximately 15° C. in a translucent incubation cabinet at a relative atmospheric humidity of approximately 100%. The plants are placed in the greenhouse at a temperature of approximately 15° C. and a relative atmospheric humidity of approximately 80%.

[8] = test system: Uromyces appendiculatus; experiment: Example F: in vivo preventive test on Uromyces appendiculatus (beans); conditions: table F, 100 ppm, evaluated 10 days after inoculation
Method: as §1, with “F:” for “E:”, “Uromyces appendiculatus (Beans)” for “Venturia inaequalis (Apples)”, “spore” for “conidia”, “bean rust (Uromyces appendiculatus)” for “apple scab (Venturia inaequalis)”

[9] = table A1, 100 ppm of active ingredient, evaluated 7 days after inoculation
[10] = table A2, dose 100 ppm, comparison with WO-2010/086311 compounds
[11] = table C1, 100 ppm, evaluated 7 days after inoculation

Row | Compound | Efficacy [1] [%] | Efficacy [2, 9] [%] | Efficacy [2, 10] [%] | Efficacy [3, 11] [%] | Efficacy ([3]; table C2, dose 100 ppm, comparison with WO-2010/086311 compound) [%] | Efficacy ([3]; table C2, dose 100 ppm, comparison with WO-2010/086311 compound, listed as 1.23) | Efficacy [4] [%] | Efficacy [5] [%] | Efficacy [6] [%] | Efficacy [7] [%] | Efficacy [8] [%]
1 | CC(C1CCCc2ccccc21)N(C(=O)c1c(C(F)F)nn(C)c1F)C1CC1 (centres unmarked) [I.23] | 100 | 94 | 94 | 90 | 90 | at least 90% | 85 | 78 | 100 | 100 | 96
2 | Cn1nc(C(F)F)c(C(=O)N(CC2CC(C)(C)Oc3ccccc32)C2CC2)c1F (centres unmarked) [I.33] | 97 | 94 | 94 | 100 | – | – | 80 | 100 | 100 | 100 | 100
